The source of these data is publication PMC9856672, “SGC-CAMKK2-1: A Chemical Probe for CAMKK2” (Cells, 2023).

SMILES strings stand for the structures.

The target in assay [1] is T1, WNK3 (Homo sapiens, UniProt Q9BYP7).
T1 construct: purchased Eurofins DiscoverX KINOMEscan
The experiment in a line: KINOMEscan 1 μM, WNK3. It is filed as binding. The note with it: 1000 nM; Entrez WNK3; read-out: Percent Control. An excerpt: (§1) Supplement cells-12-00287-s001.zip/File S2. KinomeScan data for the CAMKK2 probe and negative control.xlsx, sheet "SGC-CAMKK2-1" | column: Percent Control

Assay [2] concerns the target T2, DAPK3 (Homo sapiens, UniProt O43293).
T2 construct: purchased Eurofins DiscoverX KINOMEscan
The experiment in a line: KINOMEscan 1 μM, DAPK3. It is filed as binding. The note with it: 1000 nM; Entrez DAPK3; read-out: Percent Control.
Excerpt: as §1

In assay [3] the target is T3, NEK7 (Homo sapiens, UniProt Q8TDX7).
T3 construct: purchased Eurofins DiscoverX KINOMEscan
The experiment in a line: KINOMEscan 1 μM, NEK7. It counts as binding. Conditions: 1000 nM; Entrez NEK7; read-out: Percent Control.
Excerpt: as §1

For assay [4], the target named is T4, TESK1 (Homo sapiens, UniProt Q15569).
T4 construct: purchased Eurofins DiscoverX KINOMEscan
The experiment in a line: DiscoverX KINOMEscan binding assay at 1 μM, TESK1. The note with it: Compound Concentration 1000 nM, read-out: Percent Control.
Excerpt: as §1

Assay [5] addresses T5, PLK2 (Homo sapiens, UniProt Q9NYY3).
T5 construct: purchased Eurofins DiscoverX KINOMEscan
The experiment in a line: DiscoverX KINOMEscan binding assay at 1 μM, PLK2. The note with it: Compound Concentration 1000 nM, read-out: Percent Control.
Excerpt: as §1

Assay [6] concerns the target T6, RPS6KA4(Kin.Dom.1-N-terminal) (Homo sapiens, UniProt O75676).
T6 construct: RPS6KA4(Kin.Dom.1-N-terminal); purchased Eurofins DiscoverX KINOMEscan
The experiment in a line: DiscoverX KINOMEscan binding assay at 1 μM, RPS6KA4(Kin.Dom.1-N-terminal). Conditions: Compound Concentration 1000 nM, read-out: Percent Control.
Excerpt: as §1

Assay [7] has as its target T7, GRK4 (Homo sapiens, UniProt P32298).
T7 construct: purchased Eurofins DiscoverX KINOMEscan
The experiment in a line: KINOMEscan 1 μM, GRK4. It counts as binding. The note with it: 1000 nM; Entrez GRK4; read-out: Percent Control.
Excerpt: as §1

Assay [8] deals with T8, EPHA5 (Homo sapiens, UniProt P54756).
T8 construct: purchased Eurofins DiscoverX KINOMEscan
The experiment in a line: KINOMEscan 1 μM, EPHA5. It counts as binding. Conditions: 1000 nM; Entrez EPHA5; read-out: Percent Control.
Excerpt: as §1

Assay [9] addresses T9, PRKCI (Homo sapiens, UniProt P41743).
T9 construct: purchased Eurofins DiscoverX KINOMEscan
The experiment in a line: DiscoverX KINOMEscan binding assay at 1 μM, PRKCI. Conditions: Compound Concentration 1000 nM, read-out: Percent Control.
Excerpt: as §1

In assay [10] the target is T10, EGFR(L861Q) (Homo sapiens, UniProt P00533, L861Q).
T10 construct: purchased Eurofins DiscoverX KINOMEscan
The experiment in a line: KINOMEscan 1 μM, EGFR(L861Q). Conditions: 1000 nM; Entrez EGFR; read-out: Percent Control. It is filed as binding.
Excerpt: as §1

Assay [11] addresses T11, BIKE (Homo sapiens, UniProt Q9NSY1).
T11 construct: purchased Eurofins DiscoverX KINOMEscan
The experiment in a line: KINOMEscan 1 μM, BIKE. It is filed as binding. Conditions: 1000 nM; Entrez BMP2K; read-out: Percent Control.
Excerpt: as §1

The target of assay [12] is T12, LKB1 (Homo sapiens, UniProt Q15831).
T12 construct: purchased Eurofins DiscoverX KINOMEscan
The experiment in a line: KINOMEscan 1 μM, LKB1. It counts as binding. Conditions: 1000 nM; Entrez STK11; read-out: Percent Control.
Excerpt: as §1

The target in assay [13] is T13, PIKFYVE (Homo sapiens, UniProt Q9Y2I7).
T13 construct: purchased Eurofins DiscoverX KINOMEscan
The experiment in a line: KINOMEscan 1 μM, PIKFYVE. It counts as binding. The note with it: 1000 nM; Entrez PIKFYVE; read-out: Percent Control.
Excerpt: as §1

In assay [14] the target is T14, RSK2(Kin.Dom.2-C-terminal) (Homo sapiens, UniProt P51812).
T14 construct: RSK2(Kin.Dom.2-C-terminal); purchased Eurofins DiscoverX KINOMEscan
The experiment in a line: DiscoverX KINOMEscan binding assay at 1 μM, RSK2(Kin.Dom.2-C-terminal). Conditions: RSK2(Kin.Dom.2-C-terminal) (RPS6KA3); Compound Concentration 1000 nM; read-out: Percent Control.
Excerpt: as §1

The target of assay [15] is T15, PFPK5(P.falciparum) (Plasmodium falciparum, UniProt P61075).
T15 construct: purchased Eurofins DiscoverX KINOMEscan
The experiment in a line: DiscoverX KINOMEscan binding assay at 1 μM, PFPK5(P.falciparum). Conditions: PFPK5(P.falciparum) (MAL13P1.279); Compound Concentration 1000 nM; read-out: Percent Control.
Excerpt: as §1

Assay [16] has as its target T16, MAP4K5 (Homo sapiens, UniProt Q9Y4K4).
T16 construct: purchased Eurofins DiscoverX KINOMEscan
The experiment in a line: KINOMEscan 1 μM, MAP4K5. It is filed as binding. Conditions: 1000 nM; Entrez MAP4K5; read-out: Percent Control.
Excerpt: as §1

Assay [17] deals with T17, RPS6KA5(Kin.Dom.1-N-terminal) (Homo sapiens, UniProt O75582).
T17 construct: RPS6KA5(Kin.Dom.1-N-terminal); purchased Eurofins DiscoverX KINOMEscan
The experiment in a line: KINOMEscan 1 μM, RPS6KA5(Kin.Dom.1-N-terminal). The note with it: 1000 nM; Entrez RPS6KA5; read-out: Percent Control. It counts as binding.
Excerpt: as §1

Assay [18] has as its target T18, CAMK1B (Homo sapiens, UniProt Q6P2M8).
T18 construct: purchased Eurofins DiscoverX KINOMEscan
The experiment in a line: KINOMEscan 1 μM, CAMK1B. It is filed as binding. Conditions: 1000 nM; Entrez PNCK; read-out: Percent Control.
Excerpt: as §1

Assay [19] addresses T19, NIM1 (Homo sapiens, UniProt Q8IY84).
T19 construct: purchased Eurofins DiscoverX KINOMEscan
The experiment in a line: KINOMEscan at 1 μM, NIM1. It counts as binding. Conditions: 1000 nM, read-out: Percent Control. The source says: (§2) Supplement cells-12-00287-s001.zip/File S2. KinomeScan data for the CAMKK2 probe and negative control.xlsx, sheet "SGC-CAMKK2-1N" | column: Percent Control

For assay [20], the target named is T20, ABL1(Q252H)-phosphorylated (Homo sapiens, UniProt P00519, Q252H).
T20 construct: purchased Eurofins DiscoverX KINOMEscan
The experiment in a line: KINOMEscan at 1 μM, ABL1(Q252H)-phosphorylated. It counts as binding. Conditions: 1000 nM, read-out: Percent Control.
Excerpt: as §2

For assay [21], the target named is T21, CSNK1A1 (Homo sapiens, UniProt P48729).
T21 construct: purchased Eurofins DiscoverX KINOMEscan
The experiment in a line: KINOMEscan at 1 μM, CSNK1A1. It counts as binding. The note with it: 1000 nM, read-out: Percent Control.
Excerpt: as §2

Assay [22] has as its target T22, KIT(L576P) (Homo sapiens, UniProt P10721, L576P).
T22 construct: purchased Eurofins DiscoverX KINOMEscan
The experiment in a line: KINOMEscan at 1 μM, KIT(L576P). It is filed as binding. Conditions: 1000 nM, read-out: Percent Control.
Excerpt: as §2

The target in assay [23] is T23, CAMK2D (Homo sapiens, UniProt Q13557).
T23 construct: purchased Eurofins DiscoverX KINOMEscan
The experiment in a line: KINOMEscan at 1 μM, CAMK2D. It counts as binding. The note with it: 1000 nM, read-out: Percent Control.
Excerpt: as §2

In assay [24] the target is T24, ROCK1 (Homo sapiens, UniProt Q13464).
T24 construct: purchased Eurofins DiscoverX KINOMEscan
The experiment in a line: KINOMEscan at 1 μM, ROCK1. It is filed as binding. The note with it: 1000 nM, read-out: Percent Control.
Excerpt: as §2

Assay [25] has as its target T25, YSK4 (Homo sapiens, UniProt Q56UN5).
T25 construct: purchased Eurofins DiscoverX KINOMEscan
The experiment in a line: KINOMEscan at 1 μM, YSK4. It counts as binding. The note with it: 1000 nM, read-out: Percent Control.
Excerpt: as §2

In assay [26] the target is T26, PFCDPK1(P.falciparum) (Plasmodium falciparum, UniProt P62344).
T26 construct: purchased Eurofins DiscoverX KINOMEscan
The experiment in a line: KINOMEscan binding assay at 1 μM, PFCDPK1(P.falciparum). Conditions: Compound Concentration 1000 nM; read-out: Percent Control.
Excerpt: as §2

In assay [27] the target is T27, MYLK2 (Homo sapiens, UniProt Q9H1R3).
T27 construct: purchased Eurofins DiscoverX KINOMEscan
The experiment in a line: KINOMEscan at 1 μM, MYLK2. It counts as binding. Conditions: 1000 nM, read-out: Percent Control.
Excerpt: as §2

In assay [28] the target is T28, ABL1-phosphorylated (Homo sapiens, UniProt P00519).
T28 construct: purchased Eurofins DiscoverX KINOMEscan
The experiment in a line: KINOMEscan at 1 μM, ABL1-phosphorylated. It counts as binding. Conditions: 1000 nM, read-out: Percent Control.
Excerpt: as §2

Assay [29] concerns the target T29, CSNK1E (Homo sapiens, UniProt P49674).
T29 construct: purchased Eurofins DiscoverX KINOMEscan
The experiment in a line: KINOMEscan at 1 μM, CSNK1E. The note with it: 1000 nM, read-out: Percent Control. It counts as binding.
Excerpt: as §2

Assay [30] has as its target T30, EPHB3 (Homo sapiens, UniProt P54753).
T30 construct: purchased Eurofins DiscoverX KINOMEscan
The experiment in a line: KINOMEscan at 1 μM, EPHB3. It counts as binding. Conditions: 1000 nM, read-out: Percent Control.
Excerpt: as §2

For assay [31], the target named is T31, MRCKB (Homo sapiens, UniProt Q9Y5S2).
T31 construct: purchased Eurofins DiscoverX KINOMEscan
The experiment in a line: KINOMEscan binding assay at 1 μM, MRCKB. The note with it: Compound Concentration 1000 nM; read-out: Percent Control.
Excerpt: as §2

Assay [32] concerns the target T32, TNK2 (Homo sapiens, UniProt Q07912).
T32 construct: purchased Eurofins DiscoverX KINOMEscan
The experiment in a line: KINOMEscan at 1 μM, TNK2. It counts as binding. Conditions: 1000 nM, read-out: Percent Control.
Excerpt: as §2

T26 sequence (P62344 whole entry): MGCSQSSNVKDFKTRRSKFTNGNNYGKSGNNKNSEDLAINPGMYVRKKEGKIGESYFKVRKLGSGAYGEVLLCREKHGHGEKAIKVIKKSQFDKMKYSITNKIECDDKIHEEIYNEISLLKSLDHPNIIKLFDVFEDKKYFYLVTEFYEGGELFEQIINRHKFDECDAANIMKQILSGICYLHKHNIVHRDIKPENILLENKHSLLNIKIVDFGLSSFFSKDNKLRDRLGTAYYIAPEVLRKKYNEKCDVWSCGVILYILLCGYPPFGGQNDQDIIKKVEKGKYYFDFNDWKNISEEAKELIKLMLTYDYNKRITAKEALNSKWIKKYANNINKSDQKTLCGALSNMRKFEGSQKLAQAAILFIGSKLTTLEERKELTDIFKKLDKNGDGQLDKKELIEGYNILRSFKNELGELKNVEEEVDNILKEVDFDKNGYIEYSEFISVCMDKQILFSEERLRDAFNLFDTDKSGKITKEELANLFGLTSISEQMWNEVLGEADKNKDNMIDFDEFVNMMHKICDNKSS
T23 sequence (Q13557 whole entry): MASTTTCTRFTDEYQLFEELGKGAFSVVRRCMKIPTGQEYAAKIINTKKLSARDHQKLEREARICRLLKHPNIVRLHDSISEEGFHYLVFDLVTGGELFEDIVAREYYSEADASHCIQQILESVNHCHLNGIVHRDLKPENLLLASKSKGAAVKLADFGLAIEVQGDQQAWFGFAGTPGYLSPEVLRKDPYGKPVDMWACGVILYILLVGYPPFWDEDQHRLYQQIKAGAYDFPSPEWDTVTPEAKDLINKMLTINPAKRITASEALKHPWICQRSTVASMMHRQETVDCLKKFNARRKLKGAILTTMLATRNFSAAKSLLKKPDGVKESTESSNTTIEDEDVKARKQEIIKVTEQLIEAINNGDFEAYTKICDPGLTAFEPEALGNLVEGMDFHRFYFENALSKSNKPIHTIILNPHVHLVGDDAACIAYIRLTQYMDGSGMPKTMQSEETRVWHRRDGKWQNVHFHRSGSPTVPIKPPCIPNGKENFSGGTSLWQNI
T30 sequence (P54753 34-998): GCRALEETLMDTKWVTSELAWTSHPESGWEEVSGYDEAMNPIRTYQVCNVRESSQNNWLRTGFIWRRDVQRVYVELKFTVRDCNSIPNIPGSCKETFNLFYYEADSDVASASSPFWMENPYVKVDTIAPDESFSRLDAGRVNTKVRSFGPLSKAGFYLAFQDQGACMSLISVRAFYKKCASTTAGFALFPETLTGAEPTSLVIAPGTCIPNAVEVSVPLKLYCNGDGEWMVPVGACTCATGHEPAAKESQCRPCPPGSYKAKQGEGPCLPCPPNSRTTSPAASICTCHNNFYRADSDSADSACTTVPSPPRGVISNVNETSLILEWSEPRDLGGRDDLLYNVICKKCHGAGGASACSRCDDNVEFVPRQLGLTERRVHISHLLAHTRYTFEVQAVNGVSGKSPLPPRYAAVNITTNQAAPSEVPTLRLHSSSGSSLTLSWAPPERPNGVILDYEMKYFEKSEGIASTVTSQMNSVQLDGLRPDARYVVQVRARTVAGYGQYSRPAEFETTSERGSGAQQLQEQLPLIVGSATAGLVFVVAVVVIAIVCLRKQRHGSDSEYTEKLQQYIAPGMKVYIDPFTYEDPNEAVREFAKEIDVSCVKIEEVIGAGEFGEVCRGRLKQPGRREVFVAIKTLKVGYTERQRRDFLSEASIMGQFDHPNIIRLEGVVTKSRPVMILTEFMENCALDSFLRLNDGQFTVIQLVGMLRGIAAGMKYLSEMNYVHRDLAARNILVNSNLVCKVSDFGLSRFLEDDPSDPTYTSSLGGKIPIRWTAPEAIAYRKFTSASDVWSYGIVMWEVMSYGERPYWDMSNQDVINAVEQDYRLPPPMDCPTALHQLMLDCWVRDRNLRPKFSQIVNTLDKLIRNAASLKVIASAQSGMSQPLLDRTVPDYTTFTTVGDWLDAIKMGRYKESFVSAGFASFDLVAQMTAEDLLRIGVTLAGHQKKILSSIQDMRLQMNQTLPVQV
T7 sequence (P32298 whole entry): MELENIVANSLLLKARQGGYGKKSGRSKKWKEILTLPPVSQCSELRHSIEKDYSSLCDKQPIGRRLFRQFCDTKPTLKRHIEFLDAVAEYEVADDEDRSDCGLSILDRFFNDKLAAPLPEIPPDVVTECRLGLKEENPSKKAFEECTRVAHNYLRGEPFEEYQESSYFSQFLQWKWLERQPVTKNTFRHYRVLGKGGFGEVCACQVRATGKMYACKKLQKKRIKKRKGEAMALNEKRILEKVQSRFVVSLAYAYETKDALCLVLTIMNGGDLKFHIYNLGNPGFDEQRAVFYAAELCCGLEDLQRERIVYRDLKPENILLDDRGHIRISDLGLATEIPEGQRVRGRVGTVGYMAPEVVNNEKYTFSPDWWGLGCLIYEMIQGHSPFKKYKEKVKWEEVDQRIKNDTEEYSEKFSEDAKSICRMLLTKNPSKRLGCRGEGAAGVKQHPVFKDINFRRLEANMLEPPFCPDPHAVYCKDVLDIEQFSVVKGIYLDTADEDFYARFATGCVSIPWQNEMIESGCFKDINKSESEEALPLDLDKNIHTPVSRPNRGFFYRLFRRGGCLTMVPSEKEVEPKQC
T14 sequence (P51812 398-740 limits assumed): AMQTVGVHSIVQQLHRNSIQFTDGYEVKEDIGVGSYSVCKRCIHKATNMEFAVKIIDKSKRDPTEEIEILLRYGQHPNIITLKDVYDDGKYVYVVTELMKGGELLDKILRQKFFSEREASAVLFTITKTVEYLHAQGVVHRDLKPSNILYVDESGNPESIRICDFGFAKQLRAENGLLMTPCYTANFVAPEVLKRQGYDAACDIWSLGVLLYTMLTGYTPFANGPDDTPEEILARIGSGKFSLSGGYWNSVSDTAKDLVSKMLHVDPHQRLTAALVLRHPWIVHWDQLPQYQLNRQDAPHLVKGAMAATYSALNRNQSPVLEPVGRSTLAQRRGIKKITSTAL
T17 sequence (O75582 1-387 limits assumed): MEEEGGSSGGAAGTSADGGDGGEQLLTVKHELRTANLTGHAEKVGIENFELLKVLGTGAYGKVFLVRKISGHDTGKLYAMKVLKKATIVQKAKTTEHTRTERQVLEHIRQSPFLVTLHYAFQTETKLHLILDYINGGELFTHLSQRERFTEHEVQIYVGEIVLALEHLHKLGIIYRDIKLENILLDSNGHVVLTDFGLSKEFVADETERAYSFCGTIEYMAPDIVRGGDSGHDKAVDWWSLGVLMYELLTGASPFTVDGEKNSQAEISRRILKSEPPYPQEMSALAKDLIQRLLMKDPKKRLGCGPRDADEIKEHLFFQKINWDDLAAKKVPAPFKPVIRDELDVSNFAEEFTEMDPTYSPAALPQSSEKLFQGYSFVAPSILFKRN
T22 sequence (P10721 26-976 L576P): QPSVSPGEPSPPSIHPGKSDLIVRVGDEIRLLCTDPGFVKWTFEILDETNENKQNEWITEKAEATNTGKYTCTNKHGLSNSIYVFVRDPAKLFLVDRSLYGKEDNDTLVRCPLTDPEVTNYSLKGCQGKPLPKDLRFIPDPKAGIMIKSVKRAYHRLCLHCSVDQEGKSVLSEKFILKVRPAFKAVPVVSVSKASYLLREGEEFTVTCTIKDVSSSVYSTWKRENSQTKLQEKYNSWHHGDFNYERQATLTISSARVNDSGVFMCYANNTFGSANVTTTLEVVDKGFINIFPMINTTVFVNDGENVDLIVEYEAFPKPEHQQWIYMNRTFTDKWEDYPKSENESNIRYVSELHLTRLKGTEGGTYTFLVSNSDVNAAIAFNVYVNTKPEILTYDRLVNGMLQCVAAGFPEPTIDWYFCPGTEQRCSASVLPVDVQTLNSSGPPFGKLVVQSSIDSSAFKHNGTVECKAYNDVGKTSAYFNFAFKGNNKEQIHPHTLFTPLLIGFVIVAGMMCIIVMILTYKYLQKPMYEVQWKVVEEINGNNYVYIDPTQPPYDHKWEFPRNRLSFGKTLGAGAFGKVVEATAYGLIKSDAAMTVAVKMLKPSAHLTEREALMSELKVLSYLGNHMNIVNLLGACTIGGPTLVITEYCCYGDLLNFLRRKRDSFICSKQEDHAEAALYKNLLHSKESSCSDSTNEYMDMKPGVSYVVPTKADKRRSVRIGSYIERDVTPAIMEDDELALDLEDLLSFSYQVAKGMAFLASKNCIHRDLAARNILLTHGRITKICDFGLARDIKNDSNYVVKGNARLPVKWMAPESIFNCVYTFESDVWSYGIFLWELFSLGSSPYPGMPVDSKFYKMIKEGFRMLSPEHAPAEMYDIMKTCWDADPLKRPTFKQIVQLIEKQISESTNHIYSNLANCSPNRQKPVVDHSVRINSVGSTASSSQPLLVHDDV
T4 sequence (Q15569 whole entry): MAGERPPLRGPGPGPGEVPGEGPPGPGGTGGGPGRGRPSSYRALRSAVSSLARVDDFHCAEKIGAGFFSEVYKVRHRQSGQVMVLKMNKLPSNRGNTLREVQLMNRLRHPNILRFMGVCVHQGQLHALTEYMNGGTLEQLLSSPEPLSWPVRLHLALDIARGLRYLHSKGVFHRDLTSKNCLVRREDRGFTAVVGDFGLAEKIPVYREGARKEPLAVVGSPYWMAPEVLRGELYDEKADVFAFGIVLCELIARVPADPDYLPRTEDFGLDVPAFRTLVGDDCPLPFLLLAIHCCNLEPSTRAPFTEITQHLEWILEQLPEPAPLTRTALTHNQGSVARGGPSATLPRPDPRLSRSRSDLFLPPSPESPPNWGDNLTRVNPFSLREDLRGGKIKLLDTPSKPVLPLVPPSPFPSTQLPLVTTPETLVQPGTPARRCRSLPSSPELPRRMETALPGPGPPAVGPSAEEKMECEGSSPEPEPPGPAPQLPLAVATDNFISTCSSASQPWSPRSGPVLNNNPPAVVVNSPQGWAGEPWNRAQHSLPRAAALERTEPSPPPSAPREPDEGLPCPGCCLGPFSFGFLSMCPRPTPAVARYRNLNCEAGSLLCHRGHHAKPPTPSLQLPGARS

On to `Cc1cccc(-c2cnc3occ(-c4ccc(C(=O)O)c(C5CCCC5)c4)c3c2)c1` [SGC-CAMKK2-1 (YL-36)], for which the remaining binding at 1 µM in assay [1] was determined as 97%; in assay [2] it was 100%; in assay [3], 100%; in [4], 100%; in assay [5], 100%; in [6], 100%. In addition, the remaining binding at 1 µM in assay [7] is 100%; in assay [8], 100%; in assay [9] it was 100%; in assay [10], 47%; in assay [11], 100%; in assay [12], 78%. Further, the remaining binding at 1 µM stood at 80% in assay [13]; 100% in assay [14]; 100% in assay [15]; 100% in assay [16]; 98% in assay [17]; 64% in assay [18].

As to `O=C(O)c1ccc(-c2coc3ncc(-c4ccccc4)cc23)cc1Cl` [SGC-CAMKK2-1N (UNC-YL-83)], the remaining binding at 1 µM in [19] is 81%; in assay [20], 61%; in assay [21] it was 44%; in assay [22], 66%; in assay [23], 77%; in assay [24], 79%. Besides, the remaining binding at 1 µM was determined as 77% in assay [25]; 100% in assay [26]; 82% in [27]; 69% in [28]; 92% in [29]; 53% in assay [30]. For the same compound, the remaining binding at 1 µM in assay [31] amounted to 100%; in assay [32] it was 94%.
